The test system of one assay is rat. Particulars: intracerebroventricular (icv) administration; cited from earlier work.
Assay [1] concerns the target T1, human orexin-2 (hOX2) receptor (Homo sapiens, UniProt O43614).
T1 construct: expressed in transfected cells
T1 sequence (O43614 1-444): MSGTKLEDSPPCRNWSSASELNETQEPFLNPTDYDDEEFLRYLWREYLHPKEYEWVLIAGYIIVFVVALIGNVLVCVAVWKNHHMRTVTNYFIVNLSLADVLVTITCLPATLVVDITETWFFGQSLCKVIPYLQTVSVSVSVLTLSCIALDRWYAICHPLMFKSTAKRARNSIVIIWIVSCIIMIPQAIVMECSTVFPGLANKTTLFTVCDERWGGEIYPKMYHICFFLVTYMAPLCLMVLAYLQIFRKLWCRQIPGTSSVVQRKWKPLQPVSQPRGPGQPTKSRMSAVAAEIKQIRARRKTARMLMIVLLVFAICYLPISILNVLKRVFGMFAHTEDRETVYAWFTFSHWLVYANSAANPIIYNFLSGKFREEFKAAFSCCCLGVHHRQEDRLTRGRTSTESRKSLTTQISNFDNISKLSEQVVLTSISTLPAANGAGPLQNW
Kind of assay: Intracellular Ca2+ mobilization assay (FLIPR), CHO(dHFr-) cells expressing hOX2, orexin-A at EC80 as agonist. It is filed as cell-based. Particulars: Kb=IC50/(1+[A]/EC50); CHO(dHFr-)-OX2R cells, antagonist applied 25 min before orexin-A EC80. The method, boiled down:
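Fluo-4-loaded CHO(dHFr−) cells stably expressing hOX2 were preincubated 25 min at 37 °C with antagonist (11 concentrations, 0.0001–10 μM), then challenged with orexin-A at its daily-determined EC80. Peak fluorescence over basal read by FLIPR; IC50 from Hill fit, Kb via Kb=IC50/(1+[A]/EC50).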
For orientation: A change in cytosolic calcium serves as a functional read-out for many receptors and channels.

The values below come from patent US20090036422A1 (priority 2007, published 2009).

Where a name gives a salt, the structure may show the parent alone.

For “OX-A: "orexin-A/hypocretin1 (OX-A, 33 amino acids)", hypothalamic neuropeptide; "Orexin A ... was used as agonist" (QPLPDCCRQKTCSCRLYELLHGAGNHAAGILTL; Orexin-A; UniProt O43612 34-66, looked up)”, the “reduction of total REM sleep” value with rat was 84%.
As a reminder, the Kb is the affinity of an antagonist, worked out from how it opposes an agonist. A high value points to a less potent antagonist. `Cc1ccc(N(CCc2ccc(F)c(F)c2)C(=O)[C@@H](N)c2ccccc2)cc1C` [Example 189, (S)-2-Amino-N-[2-(3,4-difluoro-phenyl)-ethyl]-N-(3,4-dimethyl-phenyl)-2-phenyl-acetamide hydrochloride] displayed a Kb in assay [1] of 0.0071 µM.
Still for that read-out and setting: the figure for `Cc1ccc(CCN(C(=O)C(NCC2CCCO2)c2ccccc2)c2ccc(C)c(C)c2)cc1` (stereo not drawn) [Example 127, N-(3,4-Dimethyl-phenyl)-2-phenyl-2-[(tetrahydro-furan-2-ylmethyl)-amino]-N-(2-p-tolyl-ethyl)-acetamide] is 0.0222 µM; for `N[C@H](C(=O)N(CCc1ccc(F)cc1)c1ccc2c(c1)CCO2)c1ccccc1` [Example 239, (S)-2-Amino-N-(2,3-dihydro-benzofuran-5-yl)-N-[2-(4-fluoro-phenyl)-ethyl]-2-phenyl-acetamide hydrochloride] it is 0.025 µM; for `CCc1ccc(N(CCc2ccc(F)cc2)C(=O)[C@@H](N)c2ccccc2)cc1` [Example 244, (S)-2-Amino-N-(4-ethyl-phenyl)-N-[2-(4-fluoro-phenyl)-ethyl]-2-phenyl-acetamide hydrochloride] it is 0.049 µM.
On the same count and under the same terms, the figure for `Cc1ccc(N(CCc2ccc(OC(F)F)cc2)C(=O)[C@@H](N)c2ccccc2)cc1C` [Example 210, (S)-2-Amino-N-[2-(4-difluoromethoxy-phenyl)-ethyl]-N-(3,4-dimethyl-phenyl)-2-phenyl-acetamide hydrochloride] is 0.0077 µM.
As for `COc1cc(N(CCc2ccc(C(F)(F)F)cc2)C(=O)C(N)c2ccccc2)ccc1F` (stereo not drawn) [Example 104, 2-Amino-N-(4-fluoro-3-methoxy-phenyl)-2-phenyl-N-[2-(4-trifluoromethyl-phenyl)-ethyl]-acetamide], the Kb in assay [1] is 0.022 µM.
On the same count and under the same terms, to `Cc1ccc(N(CCc2cccc(C(F)(F)F)c2)C(=O)[C@@H](N)c2ccccc2)cc1C` [Example 184, (S)-2-Amino-N-(3,4-dimethyl-phenyl)-2-phenyl-N-[2-(3-trifluoromethyl-phenyl)-ethyl]-acetamide hydrochloride] belongs 0.0249 µM; to `COc1cc(N(CCc2ccc(C(F)(F)F)cc2)C(=O)[C@@H](N)c2ccccc2)ccc1C` [Example 162, (S)-2-Amino-N-(3-methoxy-4-methyl-phenyl)-2-phenyl-N-[2-(4-trifluoromethyl-phenyl)-ethyl]-acetamide], 0.0151 µM; to `N[C@H](C(=O)N(CCc1ccc(C(F)(F)F)cc1)c1ccc(OC(F)F)cc1)c1ccccc1` [Example 148, (S)-2-Amino-N-(4-difluoromethoxy-phenyl)-2-phenyl-N-[2-(4-trifluoromethyl-phenyl)-ethyl]-acetamide], 0.0217 µM.
As to `COc1ccc(CCN(C(=O)C(N)c2ccccc2)c2ccc(OC(F)(F)F)cc2)cc1OC` (stereo not drawn) [Example 78, 2-Amino-N-[2-(3,4-dimethoxy-phenyl)-ethyl]-2-phenyl-N-(4-trifluoromethoxy-phenyl)-acetamide], in assay [1], the Kb was 0.0444 µM.
`COC(CNC(C(=O)N(CCc1ccc(C)cc1)c1ccc(C)c(C)c1)c1ccccc1)OC` (stereo not drawn) [Example 129, 2-(2,2-Dimethoxy-ethylamino)-N-(3,4-dimethyl-phenyl)-2-phenyl-N-(2-p-tolyl-ethyl)-acetamide] displayed a Kb in assay [1] of 0.0173 µM. Against the preceding molecule, the Kb is about 2.6-fold lower.
Same read-out and setting: the figure for `COc1ccc(N(CCc2ccc(C(F)(F)F)cc2)C(=O)C(O)c2ccccc2F)cc1OC` (stereo not drawn) [Example 31, N-(3,4-dimethoxyphenyl)-2-(2-fluorophenyl)-2-hydroxy-N-{2-[4-(trifluoromethyl)phenyl]ethyl}acetamide] is 0.0336 µM; for `C=COCCNC(C(=O)N(CCc1ccc(C)cc1)c1ccc(C)c(C)c1)c1ccccc1` (stereo not drawn) [Example 135, N-(3,4-Dimethyl-phenyl)-2-phenyl-N-(2-p-tolyl-ethyl)-2-(2-vinyloxy-ethylamino)-acetamide] it is 0.0379 µM.
The same measure, in the same setting: to `COc1cc(N(CCc2ccc(C(F)(F)F)cc2)C(=O)C(N)c2ccccc2)ccc1Cl` (stereo not drawn) [Example 65, 2-Amino-N-(4-chloro-3-methoxy-phenyl)-2-phenyl-N-[2-(4-trifluoromethyl-phenyl)-ethyl]-acetamide] belongs 0.0285 µM.
